# Measured values from patent publication US6407103B2, “Indeno [1,2-c] pyrazol-4-ones and their uses” (Bristol-Myers Squibb Pharma Company, priority 1998, dated 2002).
# Where a name gives a salt, the structure may show the parent alone.
row,melting point [°C],Compound
1,245,"O=C(CN1CCC(O)CC1)Nc1cccc2c1C(=O)c1c-2n[nH]c1-c1ccc(N2CCOCC2)cc1 [Example LXXXIII, 3-(4-(4-morpholinyl)phenyl)-5-((4-hydroxy-1-piperidinyl)acetamido)indeno[1,2-c]pyrazol-4-one]"
2,> 300,"CC(=O)Nc1cccc2c1C(=O)c1c-2n[nH]c1-c1cccnc1 [Example XLVIII, 3-(3-pyridyl)-5-(acetamido)indeno [1,2-c]pyrazol-4-one]"
3,202,"O=C(Nc1cccc2c1C(=O)c1c-2n[nH]c1-c1ccc(C(=O)N2CCN(c3ccccn3)CC2)s1)NN1CCOCC1 (as salt: TFA) [Example CLV, 3-(5-(4-(2-pyridyl)piperazinocarbonyl)-2-thienyl)-5-(morpholinocarbamoylamino)indeno[1,2-c]pyrazol-4-one]"
4,240,"NCC1CCN(CC(=O)Nc2cccc3c2C(=O)c2c-3n[nH]c2-c2ccc(N3CCOCC3)cc2)CC1 [Example LXXXIV, 3-(4-morpholinophenyl)-5-(4-(aminomethyl)piperidinoacetamido)indeno[1,2-c]pyrazol-4-one]"
5,166,"O=C(Nc1cccc2c1C(=O)c1c-2n[nH]c1-c1ccc(C(=O)N2CCC[C@@H]2CN2CCCC2)s1)NN1CCOCC1 (as salt: TFA) [Example CLXXXIV, 3-(5-(2(R)-(pyrrolidinomethyl)pyrrolidinocarbonyl)-2-thienyl)-5-(morpholinocarbamoylamino)indeno[1,2-c]pyrazol-4-one]"
6,> 300,"COc1ccc(-c2[nH]nc3c2C(=O)c2c(NC(=O)CN)cccc2-3)cc1 [Example XXIII, 3-(4-methoxyphenyl)-5-(aminoacetamido)indeno[1,2-c]pyrazol-4-one]"
7,> 300,"CN(C)C1CCCN(C(=O)c2ccc(-c3[nH]nc4c3C(=O)c3c(NC(=O)NN5CCOCC5)cccc3-4)s2)C1 (centres unmarked) (as salt: TFA) [Example CLXV, 3-(5-(3-(N,N-dimethylamino)piperidinocarbonyl)-2-thienyl)-5-(morpholinocarbamoylamino)indeno[1,2-c]pyrazol-4-one]"
8,186,"CN1CCN(C(=O)c2ccc(-c3[nH]nc4c3C(=O)c3c(NC(=O)NN5CCOCC5)cccc3-4)s2)CC1 (as salt: TFA) [Example CL, 3-(5-(4-methylpiperazinocarbonyl)-2-thienyl)-5-(morpholinocarbamoylamino)indeno[1,2-c]pyrazol-4-one]"
9,294,"CCc1ccc(-c2[nH]nc3c2C(=O)c2c(NC(C)=O)cccc2-3)cc1 [Example LXI, 3-(4-ethylphenyl)-5-(acetamido)indeno[1,2-c]pyrazol-4-one]"
10,> 300,"COc1ccc(-c2[nH]nc3c2C(=O)c2c(NC(=O)NN4CCN(C)CC4)cccc2-3)cc1 [Example LXVIII, 3-(4-methoxyphenyl)-5-((4-methylpiperazinocarbamoyl)amino)indeno[1,2-c]pyrazol-4-one]"
11,> 300,"COc1ccc(-c2[nH]nc3c2C(=O)c2c(NC(C)=O)cccc2-3)cc1OC [Example XVI, 3-(3,4-dimethoxyphenyl)-5-(acetamido)indeno[1,2-c]pyrazol-4-one]"

# The remaining lines, values behind:
row,Compound,melting point [°C]
1,"CN(C)CCCCC(=O)N1CCC(c2[nH]nc3c2C(=O)c2c(NC(=O)NN4CCOCC4)cccc2-3)CC1 (as salt: TFA) [Example CCLXXVIII, 3-(1-(4-(dimethylamino)butylcarbonyl)piperidin-4-yl)-5-(morpholinocarbamoylamino)indeno[1,2-c]pyrazol-4-one]",68
2,"CC(C)(C)OC(=O)N[C@H]1CC[C@H](C(=O)N2CCC(c3[nH]nc4c3C(=O)c3c(NC(=O)NN5CCOCC5)cccc3-4)CC2)CC1 [Example CCLXXXVI, 3-(1-(trans-4-(t-butoxycarbonylamino)cyclohexylcarbonyl)piperidin-4-yl)-5-(morpholinocarbamoylamino)indeno[1,2-c]pyrazol-4-one]",178
3,"O=C(CN1CCOCC1)Nc1cccc2c1C(=O)c1c-2n[nH]c1-c1ccc(N2CCNCC2)cc1 (as salt: TFA) [Example CCXV, 3-(4-piperazinophenyl)-5-(morpholinoacetamido)indeno[1,2-c]pyrazol-4-one]",259
4,"CN(C(=O)OC(C)(C)C)[C@H]1CCN(C(=O)c2ccc(-c3[nH]nc4c3C(=O)c3c(NC(=O)NN5CCOCC5)cccc3-4)s2)C1 (as salt: TFA) [Example CLXXIX, 3-(5-(3(S)-(N-methyl-t-butoxycarbonylamino)pyrrolidinocarbonyl)-2-thienyl)-5-(morpholinocarbamoylamino)indeno[1,2-c]pyrazol-4-one]",> 300
5,"NC(=O)Nc1cccc2c1C(=O)c1c-2n[nH]c1-c1ccsc1 [Example C, 3-(3-thienyl)-5-(carbamoylamino)indeno[1,2-c]pyrazol-4-one]",> 280
6,"CC(=N)N1CCN(c2ccc(-c3[nH]nc4c3C(=O)c3c(NC(=O)NN5CCOCC5)cccc3-4)cc2)CC1 (as salt: TFA) [Example CCLIII, 3-(4-(4-(1-iminoethyl)piperazino)phenyl)-5-(morpholinocarbamoylamino)indeno[1,2-c]pyrazol-4-one]",240
7,"O=C(Nc1cccc2c1C(=O)c1c-2n[nH]c1C1CCN(C(=O)N2C[C@@H]3C[C@H]2CN3)CC1)NN1CCOCC1 (as salt: TFA) [Example CCLXXII, 3-(1-(((1S,4S)-(+)-2,5-diazabicyclo[2.2.1]hept-2-yl)carbonyl)piperidin-4-yl)-5-(morpholinocarbamoylamino)indeno[1,2-c]pyrazol-4-one]",196
8,"O=C(Nc1cccc2c1C(=O)c1c-2n[nH]c1C1CCN(C(=O)n2ccnc2)CC1)NN1CCOCC1 (as salt: TFA) [Example CCLXIV, 3-(1-(imidazol-1-ylcarbonyl)piperidin-4-yl)-5-(morpholinocarbamoylamino)indeno[1,2-c]pyrazol-4-one]",202
9,"CC(C)(C)OC(=O)Nc1ccc(CC(=O)N2CCC(c3[nH]nc4c3C(=O)c3c(NC(=O)NN5CCOCC5)cccc3-4)CC2)cc1 [Example CCXCVI, 3-(1-(4-(t-butoxycarbonylamino)benzylcarbonyl)piperidin-4-yl)-5-(morpholinocarbamoylamino)indeno[1,2-c]pyrazol-4-one]",177
10,"N[C@H]1CC[C@@H](C(=O)N2CCC(c3[nH]nc4c3C(=O)c3c(NC(=O)NN5CCOCC5)cccc3-4)CC2)CC1 (as salt: TFA) [Example CCLXXXII, 3-(1-(cis-4-aminocyclohexylcarbonyl)piperidin-4-yl)-5-(morpholinocarbamoylamino)indeno[1,2-c]pyrazol-4-one]",212
11,"CO[C@H]1CC[C@H](C(=O)N2CCC(c3[nH]nc4c3C(=O)c3c(NC(=O)NN5CCOCC5)cccc3-4)CC2)CC1 (as salt: TFA) [Example CCXCII, 3-(1-(trans-4-methoxycyclohexylcarbonyl)piperidin-4-yl)-5-(morpholinocarbamoylamino)indeno[1,2-c]pyrazol-4-one]",246
12,"CC(C)(C)OC(=O)NCCCCC(=O)N1CCC(c2[nH]nc3c2C(=O)c2c(NC(=O)NN4CCOCC4)cccc2-3)CC1 (as salt: TFA) [Example CCLXXIX, 3-(1-(4-(t-butoxycarbonylamino)butylcarbonyl)piperidin-4-yl)-5-(morpholinocarbamoylamino)indeno[1,2-c]pyrazol-4-one]",98
